These results are taken from PMC9321894, “Design and Anticancer Properties of New Water-Soluble Ruthenium–Cyclopentadienyl Complexes” (Pharmaceuticals, 2022).

Marks after values point to notes of the source that are not given here. Some results are limits rather than exact numbers.

The nature of one data set: Solubility in water. Format: physicochemical. The settings on record: in presence of air, 25 °C.
Data set [1] in a line: Stability in water in presence of air (UV-vis, 1H and 31P NMR). It counts as physicochemical. The procedure: The stability of all the complexes in water was evaluated by ^31P NMR and UV–visible spectroscopies. Generally, a 5 mm NMR tube was charged in the air with the 10 mg of each complex and D2O (0.8 mL). ^1H NMR and ^31P NMR were monitored for four days to evaluate if there was any decomposition product. Decomposition/instability of the compound can be assessed by the disappearance of the NMR signals and/or by the appearance of new signals that could not be assigned to the known complex, beyond the appearance of free mTPPMS phosphine signals. Any eventual changes in the charge transfer bands between ruthenium and ligands were followed by UV–visible in the 300–900 nm range.

Data set [2] has as its system MDAMB231 triple-negative breast cancer cells. Put plainly: MTT cytotoxicity assay, MDAMB231. Format: cell-based, human. The settings on record: MDAMB231, 72 h, mean ± SD n = 3. The procedure:
The cytotoxic activity of all complexes was screened against A2780 (ovarian, Sigma-Aldrich, Lisboa, Portugal), MDAMB231 (breast, triple negative, ATCC), and HT29 (colon, ATCC) human cancer cells. Cells were grown in RPMI 1640 (A2780) or DMEM containing GlutaMax-I (MDAMB231), or McCoy’s (HT29) supplemented with 10% FBS and 1% penicillin/streptomycin (Invitrogen, Lisboa, Portugal). All cell lines were kept in a CO2 incubator (Heraeus, Hanau, Germany) with 5% CO2 at 37 °C in a humidified atmosphere. Cell viability was measured using the colorimetric MTT (3-(4,5-dimethylthiazol-2-yl)-2,5-diphenyltetrazolium bromide) assay. For the assays, cells were seeded in 200 μL of complete medium in 96-well plates and incubated at 37 °C for 24 h prior to complex treatment to allow cell adherence. The stock solutions in water (20 mM) of the complexes were freshly prepared and used for sequential dilutions in medium within the concentration range of 10^−10–10^−4 M. Cisplatin was also included in this study as a positive control. After careful removal of the medium, […] of a serial dilution of compounds in fresh medium was added to the cells, and incubation was carried out for 72 h at 37 °C. At the end of the treatment, the medium was discarded, and the cells were incubated with […] of an MTT solution in PBS (0.5 mg mL^−1). After 3 h incubation, medium was removed, and DMSO was added to solubilize the purple formazan crystals formed. The absorbance at 570 nm was measured using a plate spectrophotometer (Power Wave Xs, Bio-Tek, Winooski, VT, USA). Each experiment was repeated at least three times and each concentration tested in at least six replicates. The IC50 values were calculated from dose–response curves analyzed with the GraphPad Prism software (version 5.0).
(Formazan colour is commonly taken as a measure of viable cells.)

For data set [3], the target named is T1, fatty-acid-free human serum albumin (HSA^faf) (Homo sapiens, UniProt P02768).
T1 construct: purchased Sigma-Aldrich A3782
T1 sequence (P02768 25-609): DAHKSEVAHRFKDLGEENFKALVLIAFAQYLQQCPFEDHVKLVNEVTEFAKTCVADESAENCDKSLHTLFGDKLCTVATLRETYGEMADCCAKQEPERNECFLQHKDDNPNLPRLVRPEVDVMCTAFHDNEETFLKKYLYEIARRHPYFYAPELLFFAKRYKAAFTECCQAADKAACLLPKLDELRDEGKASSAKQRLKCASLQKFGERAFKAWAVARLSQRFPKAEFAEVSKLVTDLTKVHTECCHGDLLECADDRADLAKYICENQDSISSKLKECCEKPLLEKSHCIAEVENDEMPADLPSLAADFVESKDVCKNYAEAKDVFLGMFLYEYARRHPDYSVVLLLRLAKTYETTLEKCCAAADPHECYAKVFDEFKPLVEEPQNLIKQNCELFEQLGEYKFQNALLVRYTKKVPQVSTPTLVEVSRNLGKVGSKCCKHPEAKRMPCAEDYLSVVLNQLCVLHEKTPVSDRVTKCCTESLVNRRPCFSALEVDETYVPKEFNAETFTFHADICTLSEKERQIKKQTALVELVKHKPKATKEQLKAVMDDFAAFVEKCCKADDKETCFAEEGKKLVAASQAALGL
Put plainly: Fluorescence quenching of HSA^faf (Trp214). The settings on record: for KSV: pH 7.4. It counts as binding. As to the method: Human serum albumin (HSA) was dissolved in 10 mM HEPES buffer (pH 7.4). The HSA concentration was determined spectrophotometrically using the absorbance value at 280 nm (ε280 = 36,500 M^−1cm^−1). Complex 6 was dissolved in 10 mM HEPES buffer (pH 7.4). A series of ruthenium-protein batch solutions were prepared by adding different concentrations of ruthenium solutions to the protein solution prepared previously. For fluorescence acquisition, the final HSA concentration was 2.5 μM, and the ruthenium were 0, 0.6, 1.2, 1.8, 2.5, 5, 7.5, 10, 12.5, 15, 17.5, 20, 22.5, 25, 27.5, 30, 32.5, 35, 37.5, 40, 42.5, and 45 μM. […] The reference solutions were prepared following the procedures described above without protein.
Steady-state fluorescence measurements were carried out with a Fluorolog Model-3.22 spectrofluorometer from Horiba Jobin Yvon at 293.15, 298.15, and 310.15 K. All measurements were performed in Hellma® semi-micro fluorescence cuvettes (Suprasil® quartz, path length 10 × 4 mm, chamber volume […]) with the 10 mm path length for the excitation of the sample. The excitation and emission slit widths were fixed at 4.0 nm, and the excitation wavelength was set at 295 nm to selectively excite the tryptophan 214 residue. The emission spectra were recorded from 305 to 550 nm. Solutions of ruthenium complex in 10 mM HEPES buffer pH 7.4 in corresponding concentrations were used as reference for the measured fluorescence spectra of protein-complex mixtures. […] The fluorescence intensities were corrected for the absorption of the exciting light and re-absorption of the emitted light to decrease the inner filter effect using UV–visible absorption data recorded for each sample on a Jasco V-660 spectrophotometer in the range of 260 to 900 nm with 1 cm path quartz cells.
Fluorescence quenching of HSA by complex [Ru(η5-C5H5)(mTPPMS)(bopy)][CF3SO3] (6) […]
F0 = 1 + K τ (Q) = 1 + K (Q) (S1) where F0 and F are the fluorescence intensities of HSA in the absence and presence of the quencher [Ru(η5-C5H5)(mTPPMS)(bopy)][CF3SO3]; [Q] is the quencher concentration; Kq is the bimolecular quenching constant; t0 is the average fluorescence lifetime of HSA in the absence of the quencher, and KSV is the Stern-Volmer quenching constant.
Figure S10. Stern-Volmer plots at pH7.4 for the quenching of (A) HSA and (B) HSA faf by [Ru(η5-C5H5)(mTPPMS)(bopy)][CF3SO3] at three temperatures (◆) 293 K, (●) 298 K, (▲) 310 K.
log(F0 − F) = log K + nlog[Q] ( S2) […]
where Ka is the association constant for a site and n is the number of binding sites by protein.
Figure S11. Double-log plots for the fluorescence quenching for the (A) {HSA-[Ru(η5-C5H5)(mTPPMS)(bopy)][CF3SO3]} and (B) {HSAfaf-[Ru(η5-C5H5)(mTPPMS)(bopy)][CF3SO3]} systems at three temperatures (◆) 293 K, (●) 298 K, (▲) 310 K. […]

As a reminder, the IC50 is the concentration needed to halve the response being measured. Read a low IC50 as inhibition by little substance. As to “[RuCp(mTPPMSNa)(bopy)][CF3SO3] [Compound 6]”, in the data set “Solubility in water”, the “S(H2O)” value is 15.3 mg/mL. In the data set “Solubility in water” (value in brackets), the “S(H2O)” value is 0.015 M. For the same substance, the “Changes in the UV–vis spectra in aqueous solution” value in data set [1] (over 4 days at 37 °C) is on record as “insignificant”. Further, the “Stability in water, Time (Days)” value in data set [1] (water, in presence of air, 25 °C, time without hydrolysis) was >4 ^[b] Days. In addition, in data set [2], it took 13.4 ± 0.4 µM to reach half-maximal inhibition (IC50). Besides, in data set [3] (293.15 K), the “Ka (association constant for a site)” value was “(57.293 ± 1.27) × 10^4 L mol^−1”, the Kq entry is listed as “(28.7 ± 0.49) × 10^12 L mol^−1 s^−1”, the “n (number of binding sites)” value turned out to be 1.048 and the ΔG is -37.426 kcal/mol. Besides, in data set [3] (293.15 K), the KSV entry is on record as “(28.7 ± 0.49) × 10^4 L mol^−1”. In data set [3] (298.15 K), the “Ka (association constant for a site)” value is given as “(66.764 ± 1.29) × 10^4 L mol^−1”, the Kq entry is listed as “(40.7 ± 0.75) × 10^12 L mol^−1 s^−1”, the “n (number of binding sites)” value was determined as 1.023 and the ΔG was -37.899 kcal/mol. The KSV result in data set [3] (298.15 K) is listed as “(40.7 ± 0.75) × 10^4 L mol^−1”. In data set [3] (310.15 K), the “Ka (association constant for a site)” value is reported as “(80.668 ± 1.17) × 10^4 L mol^−1”, the Kq entry is listed as “(72.6 ± 1.02) × 10^12 L mol^−1 s^−1”, the “n (number of binding sites)” value is 1.006 and the ΔG is -39.034 kcal/mol. In data set [3] (310.15 K), the KSV result is given as “(72.6 ± 1.02) × 10^4 L mol^−1”. In data set [3] (Van't Hoff, 293.15-310.15 K), the ΔH was 40.51 (R^2 = 0.9938) kJ mol^−1 and the ΔS is 396.16 J mol^−1 K^−1. Further, the “Quenching of fluorescence intensity” value in data set [3] (highest Ru concentration (45 μM), pH 7.4, incubation at 298 K for 24 h) was 97%.
